From BigSolDB 2.1

CC(C)[C@H](N)C(=O)O
Settings	solubility (mole fraction)
in DMF, 293.15 K	1.25e-06
in DMF, 303.25 K	2.49e-06
in DMF, 313.25 K	4.36e-06
in DMF, 323.15 K	7.48e-06
in DMF, 333.25 K	1.06e-05
in DMF, 343.25 K	1.49e-05
in acetone, 293.15 K	4.96e-07
in acetone, 302.95 K	9.91e-07
in acetone, 313.35 K	1.98e-06
in acetone, 323.35 K	2.97e-06
in acetone, 328.15 K	3.97e-06
in ethanol, 293.15 K	1.18e-05
in ethanol, 303.75 K	2.36e-05
in ethanol, 313.15 K	3.69e-05
in ethanol, 323.15 K	5.34e-05
in ethanol, 333.25 K	7.62e-05
in ethanol, 343.25 K	0.000109
in isopropanol, 293.45 K	2.56e-06
in isopropanol, 303.05 K	4.61e-06
in isopropanol, 313.35 K	7.17e-06
in isopropanol, 323.25 K	1.08e-05
in isopropanol, 333.05 K	1.54e-05
in isopropanol, 343.35 K	2.1e-05
in water, 293.55 K	0.00884
in water, 303.05 K	0.00938
in water, 313.15 K	0.0101
in water, 323.05 K	0.0109
in water, 333.25 K	0.0117
in water, 343.15 K	0.0129
